# Entries after “also recorded” stand apart in the source; their conditions may differ.
# Experiments:
# human SERT = human SERT (Homo sapiens (Human), UniProt P31645); test: Novascreen Serotonin, Transporter SERT (h) binding, platelets, [3H]Citalopram, N-Methyl
# Excerpt: (§1) The NET and SERT binding may be assayed to determine if the compounds of the disclosure specifically bind to NET or SERT. An exemplary procedure for assaying NET binding may be found in Raisman et al., Eur. Jrnl. Pharmacol. (1982) 78:345-351 and in Langer et al., Eur. Jrnl. Pharmac. (1981) 72:423. An exemplary procedure for assaying SERT binding may be found in D'Amato et al., Jrnl. Pharmcacol. & Exp. Ther. (1987) 242:364-371 and in Brown et al., Eur. Jrnl. Pharmac. (1986) 123:161-165. The contents of each of these references are incorporated by reference in their entirety.
# (§2) The binding affinity of the compounds of the current disclosure is measured using a Novascreen against rodent NET, human NET and human SERT. Duloxetine is used as a positive control. Details of the Novascreen may be found in the following: • http://www.perkinelmer.com/Catalog/Product/ID/100-0123, • http://www.perkinelmer.com/Catalog/Product/ID/100-0048, • http://www.perkinelmer.com/Catalog/Product/ID/100-0146, and • http://www.perkinelmer.com/Catalog/Product/ID/100-0099.
# For the binding affinity of the compounds of the current disclosure for SERT, the following paramenters are used: • Assay Name: Serotonin, Transporter SERT (h) • Assay Type: Binding • Species: Human • Origin: Platelets • Ligand: [3H]Citalopram, N-Methyl • Ligand [M]: 7.00E-10 • Kd (Binding Affinity): 2.50E-09 • Bmax: 425 fmol/mg protein • Method: Radioactivity • Measurement: DPM
# human NET = human NET (Homo sapiens (Human), UniProt P23975); test: Novascreen Norepinephrine, Transporter NET (h) binding, recombinant CHO cells, [3H]-Nisoxetine
# Excerpt: as §1, §2
# For the binding affinity of the compounds of the current disclosure against NET, the following paramenters are used: • Assay Type: Binding • Species: Rat • Origin: Forebrain • Ligand: [3H]-Nisoxetine • Ligand [M]: 1.00E-09 • Kd (Binding Affinity): 9.00E-10 • Bmax: 10.5 fmol/mg tissue (wet weight) • Method: Radioactivity • Measurement: DPM • Assay Name: Norepinephrine, Transporter NET (h) • Assay Type: Binding • Species: Human • Origin: Recombinant/CHO cells • Ligand: [3H]-Nisoxetine • Ligand [M]: 1.00E-09 • Kd (Binding Affinity): 3.00E-09 • Bmax: 10 pmol/mg protein • Method: Radioactivity • Measurement: DPM
# naloxone-induced flush = test: Morphine-dependent rat model of hot flashes (naloxone-induced flush, tail skin temperature); format: in vivo; conditions: 30 mg/kg p.o., FIG. 1
# Excerpt: Morphine-dependent Rat Model: The effectiveness of the compounds of the present disclosure to reduce hot flashes may be evaluated by measuring its ability to reduce morphine-induced rise in TST. Ovariectomized rats may be subcutaneously injected with a vehicle (sterile water) once daily for 8 days. On day-4, two tablets of slow-release morphine may be implanted subcutaneously in the dorsal scapular region of the rats to induce morphine dependence. On day-5 and -6, morphine withdrawal may be induced by subcutaneous administration of 1.0 mg/Kg of naloxone, a general opioid antagonist. […] Ketamine (40 mg/Kg) may be injected after test compound to induce sedation so as to avoid temperature fluctuation due to stress associated with restriction of their movement and attachment of thermistor probe to the their tails. All drug- related effects may be compared to a vehicle control group which also receives ketamine. TST may be monitored continuously for 35 minutes. The average TST measured 25, 30 and 35 minutes prior to naloxone injection may be used to establish a baseline temperature. Hot flash reduction may be determined by evaluating the statistical differences between the baseline temperature and 15 minutes after naloxone treatment when the change in TST may be observed to be maximum.
# Sequence of human SERT (P31645 whole entry): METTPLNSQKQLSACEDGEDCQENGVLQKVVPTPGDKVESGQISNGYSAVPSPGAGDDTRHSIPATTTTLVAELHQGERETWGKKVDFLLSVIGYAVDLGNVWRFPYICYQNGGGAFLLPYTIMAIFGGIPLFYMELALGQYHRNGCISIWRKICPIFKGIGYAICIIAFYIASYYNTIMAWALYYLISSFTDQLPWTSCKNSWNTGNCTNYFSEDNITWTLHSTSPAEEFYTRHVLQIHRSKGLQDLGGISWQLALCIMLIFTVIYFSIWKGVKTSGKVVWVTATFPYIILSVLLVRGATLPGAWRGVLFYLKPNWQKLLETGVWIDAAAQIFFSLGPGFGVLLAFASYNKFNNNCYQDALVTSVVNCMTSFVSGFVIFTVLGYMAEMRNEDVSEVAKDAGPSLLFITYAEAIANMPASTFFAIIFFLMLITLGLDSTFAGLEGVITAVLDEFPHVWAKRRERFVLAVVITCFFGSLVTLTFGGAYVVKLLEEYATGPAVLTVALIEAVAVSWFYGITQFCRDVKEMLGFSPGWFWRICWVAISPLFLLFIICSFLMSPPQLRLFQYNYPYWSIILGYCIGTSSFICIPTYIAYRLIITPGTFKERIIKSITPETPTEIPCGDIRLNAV
# Sequence of human NET (P23975 whole entry): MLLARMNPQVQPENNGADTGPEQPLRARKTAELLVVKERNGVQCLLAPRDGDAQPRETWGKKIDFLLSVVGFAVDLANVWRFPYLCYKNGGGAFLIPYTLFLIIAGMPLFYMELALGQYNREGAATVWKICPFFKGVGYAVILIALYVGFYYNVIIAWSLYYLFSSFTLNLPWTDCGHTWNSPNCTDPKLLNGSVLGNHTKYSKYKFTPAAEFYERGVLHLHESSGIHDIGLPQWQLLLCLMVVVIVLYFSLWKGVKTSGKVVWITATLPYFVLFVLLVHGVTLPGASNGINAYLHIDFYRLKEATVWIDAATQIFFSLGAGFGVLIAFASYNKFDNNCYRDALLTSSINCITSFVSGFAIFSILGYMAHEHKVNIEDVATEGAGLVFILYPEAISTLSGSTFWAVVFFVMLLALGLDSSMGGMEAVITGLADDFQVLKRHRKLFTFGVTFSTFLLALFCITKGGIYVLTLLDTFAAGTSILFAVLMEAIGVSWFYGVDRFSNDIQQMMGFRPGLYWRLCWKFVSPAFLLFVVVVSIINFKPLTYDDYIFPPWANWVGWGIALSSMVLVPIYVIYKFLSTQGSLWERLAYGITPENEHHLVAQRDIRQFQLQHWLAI
Compound,Ki (human SERT) [nM],Ki (human NET) [nM],reduction of naloxone-induced flush (naloxone-induced flush)
"CCOc1ncccc1O[C@H](CCN)c1ccccc1 [Example 2, (R)-3-Phenyl-3-(2-ethoxypyridin-3-yloxy)propan-1-amine]",–,69,–
"CCOc1ncccc1O[C@H](CCNC)c1ccccc1 [Example 3, (R)-3-(2-Ethoxypyridin-3-yloxy)-N-methyl-3-phenylpropan-1-amine]",318,4.2,effective in reducing naloxone-induced flush; also recorded: effective in reducing naloxone-inducted flush

# Second part, led by results:
Ki (human SERT) [nM],Ki (human NET) [nM],Compound,reduction of naloxone-induced flush (naloxone-induced flush)
240,81.4,"CCNCC[C@@H](Oc1cccnc1OC)c1ccccc1 [Compound 4, (R)-N-ethyl-3-(2-methoxypyridin-3-yloxy)-3-phenylpropan-1-amine]",–
579,37.3,"CCNCC[C@@H](Oc1cccnc1OCC)c1ccccc1 [Compound 5, (R)-3-(2-ethoxypyridin-3-yloxy)-N-ethyl-3-phenylpropan-1-amine]",–
–,39,"CNCC[C@@H](Oc1cccnc1OCCO)c1ccccc1 [Example 1, (R)-2-(3-(3-(Methylamino)-1-phenylpropoxy)pyridin-2-yloxy)ethanol]",–

# Source: patent US10188758B2, “Organic compounds” (INTRA-CELLULAR THERAPIES, INC., priority 2015, dated 2019)
